Laboratory results taken from ChEMBL document CHEMBL1201862, “PubChem BioAssay data set” (2004).
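Cultured in 96-well plates, cells were exposed to test compound for 48 hours across five concentrations. The concentration for 50% growth inhibition is given as GI50.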 Activity calls are given as the source filed them. Cut-off read from the data, not from the text of the source: active = GI50 up to about 1.1 µM and inactive = higher.

How the values were obtained:
Assay in all cases: DTP human tumour cell line panel, 48 h
SN12C = system: SN12C
SW-620 = system: SW-620
HL-60 = system: HL-60
HOP-92 = system: HOP-92
PC-3 = system: PC-3
A549 = system: A549
KM12 = system: KM12
HOP-62 = system: HOP-62
SF-295 = system: SF-295
MDA-MB-435 = system: MDA-MB-435
SF-539 = system: SF-539
786-0 = system: 786-0
UACC-257 = system: UACC-257
DU-145 = system: DU-145
UACC-62 = system: UACC-62
U-251 = system: U-251
IGROV-1 = system: IGROV-1
NCI-H522 = system: NCI-H522
CAKI-1 = system: CAKI-1
LOX IMVI = system: LOX IMVI

Compound | GI50 (SN12C) | GI50 (SW-620) | GI50 (HL-60) | GI50 (HOP-92) | GI50 (PC-3) | GI50 (A549) | GI50 (KM12) | GI50 (HOP-62) | GI50 (SF-295) | GI50 (MDA-MB-435) | GI50 (SF-539) | GI50 (786-0) | GI50 (UACC-257) | GI50 (DU-145) | GI50 (UACC-62) | GI50 (U-251) | GI50 (IGROV-1) | GI50 (NCI-H522) | GI50 (CAKI-1) | GI50 (LOX IMVI)
COc1ccc2c(c1)CCN=C2c1ccccc1CCCCl | 6.93 µM (inactive) | > 100 µM (inactive) | 11.4 µM (inactive) | 26.7 µM (inactive) | 17 µM (inactive) | 24.2 µM (inactive) | 14.9 µM (inactive) | 28.6 µM (inactive) | 20.5 µM (inactive) | 38.7 µM (inactive) | 18.6 µM (inactive) | 38.4 µM (inactive) | 23.7 µM (inactive) | 36.5 µM (inactive) | 36.1 µM (inactive) | 71.6 µM (inactive) | 20.1 µM (inactive) | 11.5 µM (inactive) | 24.4 µM (inactive) | –
C1=C2SSC3=CC=C(SSc4ccc(s4)SSC4=CC=C(SSC(=C1)S2)S4)S3 | > 100 µM (inactive) | > 100 µM (inactive) | – | > 100 µM (inactive) | > 100 µM (inactive) | > 100 µM (inactive) | > 100 µM (inactive) | > 100 µM (inactive) | > 100 µM (inactive) | > 100 µM (inactive) | – | > 100 µM (inactive) | > 100 µM (inactive) | > 100 µM (inactive) | – | > 100 µM (inactive) | > 100 µM (inactive) | > 100 µM (inactive) | > 100 µM (inactive) | > 100 µM (inactive)
COc1cccc(N2C(=O)/C(=C\c3ccccc3)SC2c2cc(OC)c(OC)c(OC)c2)c1 (centres undefined) | 52 µM (inactive) | – | 36 µM (inactive) | 27.7 µM (inactive) | 46.5 µM (inactive) | 64.1 µM (inactive) | 36.5 µM (inactive) | 37.6 µM (inactive) | 35.5 µM (inactive) | 22.6 µM (inactive) | – | 40.9 µM (inactive) | > 100 µM (inactive) | 41.2 µM (inactive) | 24.1 µM (inactive) | 33.3 µM (inactive) | 31.3 µM (inactive) | 22.2 µM (inactive) | 70 µM (inactive) | 37.8 µM (inactive)
C[C@H](N)C(=O)Nc1ccc(-c2nc3ccccc3s2)cc1Cl | 15.9 µM (inactive) | 15.2 µM (inactive) | – | 33.1 µM (inactive) | 13.8 µM (inactive) | 13.3 µM (inactive) | 15 µM (inactive) | 12.3 µM (inactive) | 16.6 µM (inactive) | 13.6 µM (inactive) | – | 12.5 µM (inactive) | 18.6 µM (inactive) | 16.6 µM (inactive) | 16.4 µM (inactive) | 14.6 µM (inactive) | 0.165 µM (active) | 20.5 µM (inactive) | 10.7 µM (inactive) | 7.82 µM (inactive)
C/C(=N\Nc1nc2cc(F)ccc2s1)c1ccccn1 | 0.0101 µM (active) | < 0.01 µM (active) | < 0.01 µM (active) | 0.0352 µM (active) | 0.0395 µM (active) | 0.26 µM (active) | 0.165 µM (active) | 0.381 µM (active) | 0.275 µM (active) | 0.303 µM (active) | 0.0906 µM (active) | 0.0439 µM (active) | < 0.0182 µM (active) | 0.344 µM (active) | 0.123 µM (active) | 0.0402 µM (active) | 0.0198 µM (active) | < 0.01 µM (active) | < 0.01 µM (active) | –
COc1cc2c(cc1O)C(c1cc(O)c(O)c(OC)c1)C(O)(C(=O)O)C(CO)C2O (centres undefined) | 16.4 µM (inactive) | 26 µM (inactive) | – | > 100 µM (inactive) | > 100 µM (inactive) | > 100 µM (inactive) | > 100 µM (inactive) | > 100 µM (inactive) | > 100 µM (inactive) | 17.6 µM (inactive) | > 100 µM (inactive) | 16.1 µM (inactive) | > 100 µM (inactive) | > 100 µM (inactive) | > 100 µM (inactive) | > 100 µM (inactive) | > 100 µM (inactive) | > 100 µM (inactive) | > 100 µM (inactive) | 17.9 µM (inactive)
CC(=O)OCC1=C(C)C[C@H]([C@@H](COC(C)=O)C2CCC3C4C[C@H]5O[C@]56CC=CC(=O)[C@]6(C)C4CC[C@@]32C)OC1=O (some centres undefined) | 0.444 µM (active) | 0.115 µM (active) | 0.0384 µM (active) | 0.352 µM (active) | 0.417 µM (active) | 1.39 µM (inactive) | 0.138 µM (active) | 0.634 µM (active) | 1.19 µM (inactive) | 0.153 µM (active) | – | 0.19 µM (active) | 0.302 µM (active) | 0.414 µM (active) | 0.258 µM (active) | 0.329 µM (active) | 0.184 µM (active) | 0.134 µM (active) | 0.671 µM (active) | 0.122 µM (active)
COC(CN(C)C(=O)C(C)NC(=O)c1ccccc1)OC (centres undefined) | > 100 µM (inactive) | > 100 µM (inactive) | – | > 100 µM (inactive) | > 100 µM (inactive) | > 100 µM (inactive) | > 100 µM (inactive) | – | > 100 µM (inactive) | > 100 µM (inactive) | > 100 µM (inactive) | > 100 µM (inactive) | > 100 µM (inactive) | > 100 µM (inactive) | > 100 µM (inactive) | > 100 µM (inactive) | > 100 µM (inactive) | > 100 µM (inactive) | > 100 µM (inactive) | –
Nn1c(SCC(=O)O)nc2ccccc2c1=O | > 100 µM (inactive) | > 100 µM (inactive) | – | > 100 µM (inactive) | > 100 µM (inactive) | > 100 µM (inactive) | > 100 µM (inactive) | – | > 100 µM (inactive) | > 100 µM (inactive) | > 100 µM (inactive) | > 100 µM (inactive) | > 100 µM (inactive) | > 100 µM (inactive) | > 100 µM (inactive) | > 100 µM (inactive) | > 100 µM (inactive) | > 100 µM (inactive) | > 100 µM (inactive) | > 100 µM (inactive)
Cc1ccc2nc(-n3c(/C=C/c4ccccc4O)nc4ccccc4c3=O)sc2c1 | – | > 100 µM (inactive) | > 100 µM (inactive) | > 100 µM (inactive) | > 100 µM (inactive) | > 100 µM (inactive) | > 100 µM (inactive) | > 100 µM (inactive) | > 100 µM (inactive) | > 100 µM (inactive) | – | > 100 µM (inactive) | > 100 µM (inactive) | > 100 µM (inactive) | > 100 µM (inactive) | > 100 µM (inactive) | > 100 µM (inactive) | > 100 µM (inactive) | > 100 µM (inactive) | > 100 µM (inactive)
CCC/C(=N\NC(=S)N1CCN(c2ccccn2)CC1)c1ccccn1 | – | – | < 0.001 µM (active) | 0.233 µM (active) | 0.0152 µM (active) | 0.118 µM (active) | 0.0146 µM (active) | 0.141 µM (active) | 0.00979 µM (active) | 0.133 µM (active) | – | 0.0251 µM (active) | 0.00387 µM (active) | 1.13 µM (inactive) | 0.0036 µM (active) | 0.00312 µM (active) | 0.00234 µM (active) | 0.0413 µM (active) | 0.179 µM (active) | 0.0258 µM (active)
